Consider 4 compounds from patent publication US9308295B2, “Oxygenated demineralized bone matrix for bone growth” (THERACELL, INC., priority 2013, dated 2016).

Data set [1] concerns new bone formation in subcutaneous pouch. Nature of the data set: Subcutaneous implantation of DBM/PFC slurry in a rat pouch, histology at 28 days. Type of data set: in vivo. To be noted: subcutaneous pocket, PFC with DBM. Here is the method: (§1) The induction of bone growth using DBM and an oxygen carrier was previously disclosed in U.S. Publication Application No. 2012/0082704, the entire contents of which are herein incorporated by reference. In order to investigate the properties of a perfluorocarbon (PFC) oxygen carrier and to investigate the effects of DBM and a PFC in two environments having different vascularization, four different PFCs were assayed in combination with DBM. Specifically perfluorohexane, (PFC1), perfluorodecalin (PFC2), perfluorotributylamine (PFC3), and perfluoroperhydrophenanthrene (PFC4) were mixed with DBM (powder or chips) to form a DBM/PFC mixture. In some embodiments, the amount of PFC in the PFC/DBM mixture is in the range of about 32-48 weight %. Sterile saline was then added to provide a slurry with the handling characteristics of wet sand. […] This DBM/PFC slurry mixture was then applied to a subcutaneous pouch and an intramuscular pouch in the rat biceps femoris.
(§2) 0.4 ml of the perfluorocarbon was filtered through a 0.2 micron filter and added to 0.8 g of DBM (powder or chips) at the time of surgery prior to implantation in either a subcutaneous or an intramuscular pouch in the rat biceps femoris. Using a sterile spatula the mixture was gently mixed to ensure complete wetting out of the DBM powder. This was assessed visually. 1.4 ml of sterile saline was then added to the mixture and the resultant slurry was loaded into a 1 ml syringe with its end removed, resulting in a composition including PFC at about 32 to about 48% by weight. The mixture was lightly tamped and using the plunger on the syringe a 0.2 ml implant volume was defined. This was then introduced into the rat pouch. The PFCs included several perfluoroperhydrophenanthrene and perfluorodecalin that have achieved FDA clearance for use in various procedures in humans. In prior studies bone forms readily in DBM implanted in the SD […] model, and thus a human DBM was selected specifically to be from low activity level batches (1965 picograms/gram BMP2; Spec>2300) (Allosource®, Centennial, Colo.). A formulation consisting of DBM+PFC+Saline was prepared at the time of surgery. […] Perfluorohexane, (PFC1), perfluorodecalin (PFC2), and perfluoroperhydrophenanthrene (PFC4) were obtained from a GMP manufacturer and have varying levels of US Device/Drug usage. Accordingly, perfluorohexane, (PFC1), perfluorodecalin (PFC2), and perfluoroperhydrophenanthrene (PFC4) represent material and supplier suitable for use in a commercial product.
(§3) 30 SD Rats (Rattusnorvegicus, CR; NIH-RNU) received bilateral placement of test article (i.e., the DBM and PFC slurry) intramuscularly within the biceps femoris muscle or subcutaneously. Each animal acted as its own control with a saline/DBM implant in the contralateral limb. […]

The test system of data set [2] is new bone formation in intramuscular pouch in the rat biceps femoris. As to the kind of experiment: Intramuscular implantation of DBM/PFC slurry in rat biceps femoris, histology at 28 days. Type of data set: in vivo. To be noted: DBM/PFC slurry mixture in saline, intramuscular pocket in biceps femoris, control DBM alone in contralateral limb. The procedure: as §1, §2, §3

The conditions of data set [3]: in vivo; cited from earlier work.

For the compound `FC(F)(F)C(F)(F)C(F)(F)C(F)(F)C(F)(F)C(F)(F)F` [PFC1, Perfluorohexane], the “performance of the PFCs relative to each other in new bone formation” value in data set [1] was “performed equally”. In data set [2], the “histologic grade of new bone formation as compared to DBM alone” value (“histologic grade … compared to DBM alone” below) is recorded as “increased histologic grade of new bone formation”.
`FC1(F)C(F)(F)C(F)(F)C2(F)C(F)(F)C(F)(F)C(F)(F)C(F)(F)C2(F)C1(F)F` (stereo not drawn) [PFC2, Perfluorodecalin]: in data set [1], the “performance of the PFCs relative to each other in new bone formation” value was “performed better than PFC1, PFC3, and PFC4”. In data set [3], the “retention in the liver” value is listed as “not retained in the liver”. Also, the “histologic grade … compared to DBM alone” value in data set [2] is “increased histologic grade of new bone formation”.
Regarding `FC(F)(F)C(F)(F)C(F)(F)C(F)(F)N(C(F)(F)C(F)(F)C(F)(F)C(F)(F)F)C(F)(F)C(F)(F)C(F)(F)C(F)(F)F` [PFC3, Perfluorotributylamine], the “performance of the PFCs relative to each other in new bone formation” value in data set [1] is “performed equally”. Besides, in data set [2], the “histologic grade … compared to DBM alone” value is reported as “increased histologic grade of new bone formation”.
For `FC1(F)C(F)(F)C(F)(F)C2(F)C(F)(C1(F)F)C(F)(F)C(F)(F)C1(F)C(F)(F)C(F)(F)C(F)(F)C(F)(F)C12F` (stereo not drawn) [PFC4, Perfluoroperhydrophenanthrene], in that order: “performed equally” and “increased histologic grade of new bone formation”.
